Assay results reported in patent US20130072474A1, “TREATMENT OF DEMENTIA OF ALZHEIMER'S TYPE WITH MASITINIB” (AB SCIENCE, priority 2010, published 2013).

Key:
[1] = system: patients suffering from mild to moderate dementia of Alzheimer's type; assay: Phase 2 study, CIBIC-plus (global clinical assessment); type: in vivo, human; conditions: Observed Cases, ITT population
Source text: (§1) A multicenter, randomized, double-blind, placebo-controlled, parallel-group phase 2 study evaluating the activity of masitinib given orally for 24 weeks has been performed in patients suffering from mild to moderate dementia of Alzheimer's type (protocol period completed, extension ongoing).
(§2) Patients: Patients enrolled in this study had dementia of Alzheimer's type (according to DSM IV criteria), probable Alzheimer's disease according to NINCDS-ADRDA criteria, MMSE≧12 and ≦26, and CDR of 1 or 2. […] Exclusion criteria included inadequate organ function (defined via blood test levels), dementia due to any other causes, uncontrolled depression, psychosis, delusions or delirium.
(§3) Treatment: In addition to a stable dose of acetylcholinesterase inhibitors and/or memantine, patients received masitinib or placebo, supplied as 100 and 200 mg tablets, per os for 24 weeks. Patients received masitinib or placebo initially at a daily total dose of 3 mg/kg or 6 mg/kg, administered twice daily with meals. Dose could be increased or decreased by 1.5 mg/kg/day depending on efficacy and toxicity assessments. Five patients were allocated to each masitinib dose for every three placebo patients. Treatment with any registered or putative cognitive enhancer or disease modifier (other than donepezil, galantamine, rivastigmine or memantine), or any investigational therapies was not allowed.
CIBIC-plus: Clinician's Interview Based Impression of Change, requires assessment by a skilled clinician based on his/her observation at an interview with the patient, in combination with information supplied by a caregiver familiar with the behavior of the patient over the interval rated.
(§4) Statistical analyses: Efficacy was analyzed in the intent-to-treat (ITT) (all randomized patients, according to group of randomization) and per protocol (PP) (all patients without a major protocol deviation) populations. […] Efficacy criteria were analyzed using descriptive statistics, numbers and rates for categorical and discontinuous variables, parametric and non-parametric distribution elements for continuous variables.
(§5) Results are presented for the ITT population in the OC dataset (with LOCF for Centre #21 at Week 24).

Fyn tyrosine kinase = Fyn tyrosine kinase (Homo sapiens, UniProt P06241); assay: Fyn tyrosine kinase inhibition (preclinical data); type: biochemical
Sequence of Fyn tyrosine kinase (P06241 whole entry): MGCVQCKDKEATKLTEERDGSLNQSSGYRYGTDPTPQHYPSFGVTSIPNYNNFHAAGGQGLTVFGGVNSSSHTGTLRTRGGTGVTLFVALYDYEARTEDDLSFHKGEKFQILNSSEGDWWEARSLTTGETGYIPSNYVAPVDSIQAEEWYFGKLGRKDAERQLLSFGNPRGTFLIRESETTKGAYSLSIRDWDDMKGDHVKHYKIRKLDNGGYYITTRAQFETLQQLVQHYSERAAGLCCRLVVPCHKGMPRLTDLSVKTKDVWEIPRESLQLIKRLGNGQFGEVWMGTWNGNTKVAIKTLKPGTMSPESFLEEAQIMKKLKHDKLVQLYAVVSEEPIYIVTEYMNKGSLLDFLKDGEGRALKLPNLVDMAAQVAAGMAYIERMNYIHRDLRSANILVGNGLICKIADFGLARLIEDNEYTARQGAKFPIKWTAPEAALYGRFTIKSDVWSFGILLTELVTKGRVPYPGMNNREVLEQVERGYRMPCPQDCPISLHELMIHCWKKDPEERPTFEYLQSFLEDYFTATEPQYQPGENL

[2] = system: patients suffering from mild to moderate dementia of Alzheimer's type; assay: Phase 2 study, CDR; type: in vivo, human; conditions: for CDR No change, rate of patients / CDR Response (Decrease >0), rate of patients / CDR Worsening (Increase >0), rate of patients / CDR score 0, rate of patients / CDR score 0.5, rate of patients / CDR score 1, rate of patients / CDR score 2, rate of patients / CDR score 3, rate of patients: ITT population, Observed Cases
Source text: as §1, §2, §3
CDR: The CDR is a five-point categorical rating evaluating severity of dementia. The 5-point score is useful for globally staging the level of impairment: 0=No impairment, 0.5, 1, 2, and 3 indicate very mild, mild, moderate and severe dementia respectively, in the following six areas: memory, orientation, judgment, community affairs, home and hobbies, and personal care (Morris J C, 1997).
as §4, §5
The overall CDR score, calculated through the use of an algorithm, is useful for characterizing and tracking a patient's level of impairment/dementia: 0=Normal, 0.5=Very Mild Dementia, 1=Mild Dementia, 2=Moderate Dementia, 3=Severe Dementia.

## Cc1ccc(NC(=O)c2ccc(CN3CCN(C)CC3)cc2)cc1Nc1nc(-c2cccnc2)cs1 [masitinib, 4-(4-methylpiperazin-1-ylmethyl)-N-[4-methyl-3-(4-pyridin-3ylthiazol-2-ylamino)phenyl]benzamide]
[1]; W 4
  CIBIC-plus No change (CIBIC = 4), rate of patients: 16 (66.7%)
  CIBIC-plus Response (CIBIC in [1-3]), rate of patients: 4 (16.7%)
  CIBIC-plus Worsening (CIBIC in [5-7]), rate of patients: 4 (16.7%)
[1]; W 8
  CIBIC-plus No change (CIBIC = 4), rate of patients: 16 (84.2%)
  CIBIC-plus Response (CIBIC in [1-3]), rate of patients: 2 (10.5%)
  CIBIC-plus Worsening (CIBIC in [5-7]), rate of patients: 1 (5.3%)
[1]; W 12
  CIBIC-plus No change (CIBIC = 4), rate of patients: 14 (82.4%)
  CIBIC-plus Response (CIBIC in [1-3]), rate of patients: 1 (5.9%)
  CIBIC-plus Worsening (CIBIC in [5-7]), rate of patients: 12%
[1]; W 12, listed as AB1010
  CIBIC-plus Worsening (CIBIC in [5-7]), rate of patients: 2 (11.8%)
[1]; W 24
  CIBIC-plus No change (CIBIC = 4), rate of patients: 5 (55.6%)
  CIBIC-plus Response (CIBIC in [1-3]), rate of patients: 2 (22.2%)
  CIBIC-plus Worsening (CIBIC in [5-7]), rate of patients: 2 (22.2%)
[1]; W 24 LOCF center 21
  CIBIC-plus No change (CIBIC = 4), rate of patients: 12 (75.0%)
  CIBIC-plus Response (CIBIC in [1-3]), rate of patients: 2 (12.5%)
  CIBIC-plus Worsening (CIBIC in [5-7]), rate of patients: 2 (12.5%)
Fyn tyrosine kinase
  IC50: 165 nM
[2]; W 4
  CDR No change, rate of patients: 9 (90.0%)
  CDR Response (Decrease >0), rate of patients: 0 (0.0%)
  CDR Worsening (Increase >0), rate of patients: 1 (10.0%)
  CDR score 0, rate of patients: 0 (0.0%)
  CDR score 0.5, rate of patients: 0 (0.0%)
  CDR score 1, rate of patients: 7 (70.0%)
  CDR score 2, rate of patients: 3 (30.0%)
  CDR score 3, rate of patients: 0 (0.0%)
[2]; W 8
  CDR No change, rate of patients: 7 (87.5%)
  CDR Response (Decrease >0), rate of patients: 0 (0.0%)
  CDR Worsening (Increase >0), rate of patients: 1 (12.5%)
  CDR score 0, rate of patients: 0 (0.0%)
  CDR score 0.5, rate of patients: 0 (0.0%)
  CDR score 1, rate of patients: 6 (75.0%)
  CDR score 2, rate of patients: 2 (25.0%)
  CDR score 3, rate of patients: 0 (0.0%)
[2]; W 12
  CDR No change, rate of patients: 14 (82.4%)
  CDR Response (Decrease >0), rate of patients: 2 (11.8%)
  CDR Worsening (Increase >0), rate of patients: 1 (5.9%)
  CDR score 0, rate of patients: 0 (0.0%)
  CDR score 0.5, rate of patients: 1 (5.9%)
  CDR score 1, rate of patients: 15 (88.2%)
  CDR score 2, rate of patients: 1 (5.9%)
  CDR score 3, rate of patients: 0 (0.0%)
[2]; W 24
  CDR No change, rate of patients: 6 (66.7%)
  CDR Response (Decrease >0), rate of patients: 2 (22.2%)
  CDR Worsening (Increase >0), rate of patients: 1 (11.1%)
  CDR score 0, rate of patients: 0 (0.0%)
  CDR score 0.5, rate of patients: 2 (22.2%)
  CDR score 1, rate of patients: 6 (66.7%)
  CDR score 2, rate of patients: 1 (11.1%)
  CDR score 3, rate of patients: 0 (0.0%)
[2]; W 24 LOCF center 21
  CDR No change, rate of patients: 12 (75.0%)
  CDR Response (Decrease >0), rate of patients: 3 (18.8%)
  CDR Worsening (Increase >0), rate of patients: 6.3%
  CDR score 0, rate of patients: 0 (0.0%)
  CDR score 0.5, rate of patients: 2 (12.5%)
  CDR score 1, rate of patients: 13 (81.3%)
  CDR score 2, rate of patients: 1 (6.3%)
  CDR score 3, rate of patients: 0 (0.0%)
[2]; W 24 LOCF center 21, listed as AB1010
  CDR Worsening (Increase >0), rate of patients: 1 (6.3%)
[2]; Week 24
  Frequency of patients with CDR Score 0.5-1: 94%
